Measurements from patent US20200399262A1, “COMPOUNDS FOR INHIBITING PROTEIN DEGRADATION AND METHODS OF USE THEREOF IN THE TREATMENT OF CANCER” (PI Therapeutics Ltd, priority 2018, published 2020).

Legend:
MM1.S xenograft = assay: MM1.S subcutaneous flank xenograft in athymic nude mice; assay type: in vivo; details: for MM tumor growth compared to vehicle control / body weight % changes: TIW for 21 days; for Blood chemistry profiles (liver or kidney toxicity): TIW, treated mice
Description: FIG. 4A-4D depicts the growth inhibition of MM1.S xenograft in nude mice by Compound B1 (FIG. 4A, FIG. 4B) and Compound AA (FIG. 4C, FIG. 4D). FIG. 4A and FIG. 4C show tumor growth inhibition observed at end point measurements by Compound B1 and AA respectively. […] MM.1S cells (5×10^6 cells/mouse) were implanted in the rear flank of mail mice (6 weeks of age at the time of tumor implantation). On Day 20-23, mice were randomized for equivalent distribution of tumor volumes to treatment groups (n=5/group) and treated IV with vehicle, compound B1 (FIG. 4A) and compound AA (FIG. 4C), three time a week (TIW) for 21 days. Data are presented as mean tumor volume±SD. Body weight % changes in treated animals observed during the course of the study for compound B1 (FIG. 4B) and Compound AA (FIG. 4D).
Animal xenograft models. MM1.S, HCT-116, SW620 cell lines were purchased from ATCC and used for xenograft model. The cells were cultured in RPMI medium (Sigma-Aldrich) supplemented with 10% fetal bovine serum (FBS) and divided for up to 5 passages. Shortly prior to injection, cell suspension was mixed with Matrigel at 1:1 (V/V) and injected subcutaneously to the rear flank area of male nude athymic 6 weeks old mice to obtain administration of 5×10^6 cells/animal. On day 20-23, when tumor volume reached 100-150 mm^3, mice were randomized for equivalent distribution of tumor volumes to treatment groups (n=5/group) and treated via intravenous injection.

[1] = system: poly-ubiquitinated proteins; assay: Western blot of poly-ubiquitinated proteins in MM1.S cells; assay type: cell-based; details: SDS-PAGE immunoblot
Method: MM1.S cells were treated with Compound B1 (FIG. 1A), Compound AA (FIG. 1B) and Compound E1 (FIG. 1C) for indicated periods of time. Following treatment, the cells were harvested, and the lysates resolved on SDS-PAGE. Transferred membranes were blotted with antibodies as indicated. Actin was used as loading control.
Protein analysis by Western blot. At the end of treatment period, the cells were lysed with M-PER mammalian protein extraction reagent (ThermoFisher Scientific) supplemented with protease inhibitors. Equal protein amounts were resolved on pre-cast SDS-PAGE (ThermoFisher Scientific) and transferred to a PVDF membrane. The membrane was immunoblotted with antibodies as indicated. The following antibodies were used: Ub MAb (SC-8017, Santa-Cruz), ATF4, ATF6, phospho JNK, JNK (Cell signaling); eIF2alpha, phospho eIF2alpha (Novus).

proteasome = assay: Proteasome activity (Proteasome-GLO) in intact MM1.S cells; assay type: cell-based; details: 3 hr at 37° C.
Method: Proteasome activity was measured in intact MM1.S cells as cleavage of peptide substrates, specific for Trypsin like (TL), Chemotrypsin like (CTL) and Caspase like (PL) activities of the proteasome following treatment with Compound B1, Compound AA or Bortezomib (BTZ) at ˜EC50 concentrations for 3 hr at 37° C. BTZ was used as positive control.
Proteasome activity. The assay was performed only when cell viability is ≥90%. Cells were seeded in 96-well white clear bottom plates and treated with diluted compounds or vehicle control in triplicates for 3 hours at various concentrations. Catalytic activity was measured using three luminogenic proteasome substrates: Suc-LLVY-aminoluciferin (Succinyl-leucine-leucine-valine-tyrosine-aminoluciferin), Z-LRR-aminoluciferin (Z-leucine-arginine-arginine-aminoluciferin) and Z-nLPnLD-aminoluciferin (Z-norleucine-proline-norleucine-aspartate-aminoluciferin) for the chymotrypsin-like, trypsin-like and caspase-like activities, respectively (Proteasome-GLO, Promega). The emitted light was proportional to the proteasomal activity. Catalytic activity was calculated as the percent activity from control vehicle-treated cells.
MM1.S cells, were treated with Compound B1, Compound AA or Bortezomib (BTZ) at various concentrations for 3 hr at 37° C. […] Proteasome activity was measured by cleavage of proteasome-specific peptide substrates for TL, CTL and PL activities.

[2] = system: PBMCs from healthy donors; assay: In-vitro safety in PBMCs from healthy donors (ATPlite viability); assay type: cell-based; details: for therapeutic window, EC50 (PBMC)/EC50 (MM1.S) ratio: 5 healthy donor PBMC samples, viability 48 h later; for therapeutic window, EC50 (PBMC)/EC50 (MM1.S) ratio / cytotoxicity to PBMCs from healthy donors: 6 h treatment; for sensitivity of MM1.S cells versus PBMCs from healthy donors: 6 hr exposure, viability following 48 h of incubation; for cytotoxicity to PBMCs from healthy donors: viability 48 h later (ATPlight assay)
Method: FIG. 5 depicts the in-vitro safety of Compound B1 and Compound AA in Peripheral Blood Mononuclear Cells (PBMCs) from healthy donors respectively. MM1.S cells and normal PBMCs from healthy donors were treated with various concentrations of indicated compounds for 6 h and then analyzed 48 h later for cell viability (ATPlight assay). […] Calculated therapeutic windows: […], generated from 5 healthy donor PBMC samples, based on mean viability data.
PBMCs from healthy donors were exposed to Compound B1 and Compound AA for 6 hr and analyzed for viability by ATPight following 48 h of incubation. Results are representative of PBMCs from 5 healthy volunteers (FIG. 5). EC50 (PBMC)/EC50 (MM1.S) ratio, generated from 5 healthy donor PBMC samples, is shown for Compound B1, Compound AA and other UPS inhibitors [ixazomib, Bortezomib (BTZ) and CB5083].

UACC-257 = assay: NCI60 screen cytotoxicity; assay type: cell-based; details: Homo sapiens, Melanoma, read-out: Compound B1 EC50
HS-578T = assay: NCI60 screen cytotoxicity; assay type: cell-based; details: Homo sapiens, Breast cancer, read-out: Compound B1 EC50
DU-145 = assay: NCI60 screen cytotoxicity; assay type: cell-based; details: Homo sapiens, Prostate cancer, read-out: Compound B1 EC50
SNB-75 = assay: NCI60 screen cytotoxicity; assay type: cell-based; details: Homo sapiens, CNS, read-out: Compound B1 EC50
OVCAR-3 = assay: NCI60 screen cytotoxicity; assay type: cell-based; details: Homo sapiens, Ovarian cancer, read-out: Compound B1 EC50
SW-620 = assay: NCI60 screen cytotoxicity; assay type: cell-based; details: Homo sapiens, Colon cancer, read-out: Compound B1 EC50

SMILES | MM tumor growth compared to vehicle control (MM1.S xenograft; 4 mg/kg IV) | body weight % changes (MM1.S xenograft; 4 mg/kg IV) | Blood chemistry profiles (liver or kidney toxicity) (MM1.S xenograft; 4 mg/kg IV) | accumulation of poly-ubiquitinated proteins [1] | inhibition of the enzymatic functions of the proteasome (TL, CTL and PL activities) (proteasome) | therapeutic window, EC50 (PBMC)/EC50 (MM1.S) ratio [2] | sensitivity of MM1.S cells versus PBMCs from healthy donors [2] | cytotoxicity to PBMCs from healthy donors [2] | EC50 (UACC-257) | MM tumor growth compared to vehicle control (MM1.S xenograft; 5 mg/kg IV) | body weight % changes (MM1.S xenograft; 5 mg/kg IV) | Blood chemistry profiles (liver or kidney toxicity) (MM1.S xenograft; 5 mg/kg IV) | EC50 (HS-578T) | EC50 (DU-145) | EC50 (SNB-75) | EC50 (OVCAR-3) | EC50 (SW-620)
CN(C)CCCS(=O)(=O)N1C/C(=C\c2ccc(C#N)cc2)C(=O)/C(=C/c2ccc(C#N)cc2)C1 [Compound AA] | significantly inhibited MM tumor growth | No significant weight loss | no clinical abnormalities suggestive of liver or kidney toxicity | observable accumulation of poly-ubiquitinated proteins | does not Inhibit | larger Tx window than competing UPS inhibitors | more sensitive | less cytotoxic to PBMCs from healthy donors than Ixazomib, Bortezomib (BTZ) and CB5083 |  |  |  |  |  |  |  |  | 
CN(C)CC(=O)NCC(=O)N1C/C(=C\c2ccc(C#N)cc2)C(=O)/C(=C/c2ccc(C#N)cc2)C1 [Compound B1] |  |  |  | observable accumulation of poly-ubiquitinated proteins | does not Inhibit | larger Tx window than competing UPS inhibitors | more sensitive | less cytotoxic to PBMCs from healthy donors than Ixazomib, Bortezomib (BTZ) and CB5083 | 300 to 1000 nM | significantly inhibited MM tumor growth | No significant weight loss | no clinical abnormalities suggestive of liver or kidney toxicity | 300 to 1000 nM | < 300 nM | 300 to 1000 nM | < 300 nM | < 300 nM
